The record followed here is patent US8927502B2, “Embedded chimeric peptide nucleic acids and uses thereof” (ICahn School of Medicine at Mount Sinai, priority 2010, dated 2015).

Read-outs that look alike come from different tables or passages of the source.

The subject of test [1] is human γ-globin promoter DNA oligonucleotide (wild type or mutated target sequence). The settings on record: for binding of PNA to its target DNA oligo (bound/input): wild type vs mutant oligo, PNA 0-10 μM, 37° C. overnight. The procedure: FIG. 1 depicts in vitro target binding specificity of four PNAs designed to interact with the human γ-globin promoter. […] The relative location of known promoter elements within this region is also indicated. Orientation of the PNA molecule relative to the promoter sequence is shown above, with a lys at its 3′-end and a biotin molecule (circle) attached at the 5′-end. In FIG. 1(b), different concentrations of PNAs (0-10 μM) were incubated with a constant amount of radioactively labeled DNA oligonucleotide (10 nM) containing either the wild type (wt) or mutated (mut) target sequence followed by incubation with streptavidin Dynabeads and collection with a magnetic particle concentrator. Bound/input ratios were obtained after scintillation counter analysis. […] The A+G sequence ladder is shown in lane 1, along with the nucleotide sequence of the γ-globin promoter aligned on the left.
A novel assay was developed to monitor specific binding of PNA molecules to their cognate DNA site (FIG. 1(b)). 2 ng of ^32P-labelled double-stranded DNA oligonucleotide (designed at regions of the γ-promoter centered at each of the four PNA target sites) was incubated with various molar excess (0× to 1000×) of PNA at 37° C. overnight in a final volume of 15 uL with 10 mM Tris and 1 mM of EDTA. The resultant material was incubated with equal amount of Dynabeads M280-streptavidin (DYNAL biotech) for […] at 25° C. Beads had been prepared by washing twice with BW buffer (10 mM Tris, pH7.5, 1 mM EDTA, 2.0M NaCl). The beads were pulled down with a Dynal MPC-S magnetic particle concentrator and washed twice with BW buffer. Samples were finally suspended in 50 uL BW buffer, and radioactivity was counted for 10 minutes in a scintillation counter to yield the average counts per minute (cpm) taken for each sample, which was then divided by the cpm of the input (1 uL of the radio-labeled oligo).

Test [2] has as its system γ-globin promoter luciferase reporter. Type of test: cell-based, human. The procedure:
The γ-globin reporter contained a 1.5 Kb Human HS2 fragment upstream of the −299 to +37 human γ-globin promoter in Promega's (Madison, Wis.) pGL2 Basic plasmid. [See Caterina, J. J., Donze, D., Sun, C. […] Nucleic Acids Res 22, 2383-2391 (1994).]
Transfection of K562 cells was performed using the DMRIE lipofection method (Gibco, Invitrogen, Carlsbad, Calif.). K562 cells were counted and 1×10^5 cells were resuspended in 0.1 mL OPTI-MEM in a 12-well plate (BD Falcon, Franklin Lakes, N.J.). Experiments were all done in triplicates. 1.5 ng Renilla plasmid (Promega Corporation. Madison, Wis.) and 0.5 μg reporter construct were added to each well. After 2 hours of transfection, PNAs were added to a final concentration of 10 μM. 2 hours later, 1 ml RPMI and a final concentration of 10% FBS were added to each well. This was followed by incubation at 37° C. for 36 hours.
36 hours after PNA addition, K562 cells were collected by centrifugation at 2500 rpm. Media was discarded and cells were washed once with 1×PBS and resuspended in 250 μL 1× passive lysis buffer (PLB) (Promega). Tubes that contained cells were put on a rocker platform for 10 minutes at room temperature. Cells were then centrifuged at 13000 rpm and resuspended in 200 μL 1×PLB, loaded on a 96 well plate and further analyzed with a Turner Biosystem Microplate Luminometer. […] Mol Cell Biol 27, 8547-8560 (2007).] Luciferase values were divided by the Renilla value from the same sample after it had been divided by 1000. To minimize the differences in between loading, each sample was loaded in three different wells and the average of three was calculated.

Test [3] has as its system endogenous γ-globin promoter. Put plainly: Chromatin association assay in K562 cells (streptavidin bead pull-down, quantitative PCR). Type of test: cell-based, human. The settings on record: 10 μM in K562 cells. The text has this:
To determine whether PNA78 can interact with its target site in vivo, a modification of the chromatin immunoprecipitation assay was developed. […] Along with the “no addition” negative control, a variant of PNA78 that contain two point mutations (MUT PNA78) was synthesized and used it as an additional negative control along with a “TAT alone” control.
This assay incorporates elements of chromatin [see Siatecka, M., Xue, L. & Bieker, J. J., Sumoylation of EKLF promotes transcriptional repression and is involved in inhibition of megakaryopoiesis, Mol Cell Biol 27, 8547-8560 (2007)] and biotinylated protein [see Viens, A., Mechold, U., Lehrmann, H., Harel-Bellan, A. & Ogryzko, V., Use of protein biotinylation in vivo for chromatin immunoprecipitation. Anal Biochem 325, 68-76 (2004)] immunoprecipitation protocols. PNA 78/TAT or mutant (MUT) PNA 78/TAT were added to 10^7 K562 cells to a final concentration of 10 μM. After […], a portion of the cells were analyzed and quantified for PNA incorporation efficiency by confocal analysis of live cells (as above), and the rest were harvested and cross-linked with 0.4% formaldehyde (Fisher Scientific, F79-500) for 10 minutes in room temperature then quenched by addition of glycine in the final concentration of 0.125 M for another 10 minutes. […]
After 16 hours of incubation of K562 cells, any formed PNA-chromatin complex was cross-linked and cells were disrupted and chromatin was sheared by sonication. […] The DNA was purified for sequence identification by quantitative PCR. To more precisely quantitate the extent of PNA entry into the nucleus, a portion of the cells from each treatment was collected, stained with the DRAQ5 live-cell nuclear stain, attached to chamber-slides, and inspected under confocal microscopy to compare PNA and TAT nuclear entry efficiency.
One microliter of DNA was used in 20 μl of quantitative PCR reaction using a Quantitect SYBR Green PCR kit from Qiagen (Valenica, Calif.) and the presence of γ-globin promoter sequences was quantified with an ABI PRISM 7900HT and SDS software. […]

The test system of test [4] is PNA78 target sequence/minimal SV40 promoter luciferase reporter in 293T cells. Put plainly: Luciferase reporter with four repeats of PNA78 target sequence and minimal SV40 promoter in 293T cells. Format: cell-based. On the technique in general: Reporter assays use an easily measured gene product as a stand-in for the process of interest.
Test [5] deals with PNA78 target sequence/minimal SV40 promoter luciferase reporter in K562 cells. As to the kind of experiment: Luciferase reporter with four repeats of PNA78 target sequence and minimal SV40 promoter in K562 cells. Format: cell-based, human.
The subject of test [6] is γ-globin promoter region −299 to +37. The settings on record: PNA 50 uM, overnight at 37° C.
Experimental: To further confirm the observation in the magnetic-pull down assay, permanganate (KMnO4) probing of the PNA78/DNA interaction in solution was carried out (FIG. 1(c)). […] Methods Mol Biol 208, 91-109 (2002)], 1 ng of a singly ^32P-end-labeled, gel purified RsaI/XhoI fragment derived from the p250 plasmid that contains the γ-globin promoter region −299 to +37 was incubated in a volume of 15 μL with a final concentration of 10 mM Tris and 1 mM EDTA for 30 minutes at 37° C. PNA was added at a final concentration of 50 uM for further incubation overnight at 37° C. 1 uL 20 mM KMnO4 was added to the reaction, and after 15 s 10 uL stop buffer (1.5 M sodium acetate, 1 M 2-mercaptoethanol, Ph 7.0) was added. 2.5× vol of 96% ethanol was added and the DNA collected by centrifugation at 13000 rpm for 15 minutes. The supernatant was removed and the DNA pellet dissolved in 100 uL 10% piperidine followed by incubation at 90° C. for 20 minutes. The lympholized DNA sample was resuspended in 8 μL FA buffer (80% deionized fomamide, 10 mM EDTA, 0.25% xylenecyanol FF, 0.25% bromphenol blue). DNA was denatured at 90° C. for 2 minutes, chilled on ice, and then electrophoresed on thin 10% polyacrylamide gels containing 7 M urea. The dried gel was then exposed for autoradiography.
Test [7] has as its system human γ-globin gene in MBC-βYAC cells. Put plainly: γ-globin expression by quantitative RT-PCR in β-YAC mouse bone marrow cells. Format: cell-based.
Text: To test this, a line of mouse bone marrow cells engineered to carry a yeast artificial chromosome that contains the complete human β-like globin locus (β-YAC) was used.
After treatment, cells were harvested and mRNA was extracted for reverse transcriptase (RT)-quantitative polymerase chain reaction (qPCR) using two different sets of published primers that recognize sequences within the γ-globin gene.
Total RNA from β-YAC MBCs were isolated with a RNeasy micro kit (Qiagen) following the manufacturer's instructions. RNA concentrations were quantified using a Nanodrop. Reverse transcription of RNA was performed with Promega's Reverse Transcription System and expression levels were quantified using a Quantitect SYBR Green PCR kit from Qiagen in conjunction with an ABI PRISM 7900HT and SDS software [see Lohmann, F. & Bieker, J. J. supra] Q-PCR results for globin expression were normalized by 2−[(Ct γ−Ct β)−(Ct γ [no PNA]−Ct β [noPNA])][see Livak, K. J. & Schmittgen, T. D., Analysis of relative gene expression data using real-time quantitative PCR and the 2(−Delta Delta C(T)) Method. Methods 25, 402-408 (2001)] divided by the PNA incorporation efficiency (determined from the live cell image data). Each reaction was performed in triplicate.
Test [8] relates to γ-globin protein in human peripheral blood CD34+ cells. As to the method:
(§1) K562 cells served as a positive control. FIG. 13(c) contains dot plots and histograms from toxicity analysis by flow cytometry of cultured CD34+ cells after PNA treatment.
(§2) Purified CD34+ cells were cultured, treated at the end of day 2 with the various PNA chimeras or with no PNA, and harvested 16 hours later for analysis.

Test [9] deals with γ-globin expression in human mobilized peripheral blood CD34+ cells. The following applies: treated at end of day 2, harvested 16 hours later. The procedure: as §1, §2
For test [10], the system named is γ-globin protein in MBC-βYAC cells. The settings on record: not detectable in untreated cells.
Experimental: K562 cells were also stained and served as a positive control for γ-globin protein detection (arrowheads).
At 48 hours post-PNA treatment, 100K MBC-βYAC cells were collected and spun onto frosted slides (Fisher) in a Shandon Cytospin 2 centrifuge at 500 rpm for 5 minutes. All steps were carried out at room temperature except when indicated. Cells were fixed for 4 minutes in ice-cold acetone/methanol (1:1) on ice and rinsed twice with 2% BSA/PBS. Samples were then incubated with blocking solution (10% FCS, 0.05% NP40/PBS) for 30 minutes followed by a two-hour incubation with hemoglobin γ antibody (Santa Cruz Biotechnology, sc-21756) diluted 1:100 in blocking solution. Slides were washed 3× with 2% BSA, 0.05% NP40/PBS and then incubated with goat anti-mouse secondary antibody conjugated to Alexa 568 (Invitrogen) at a 1:50 dilution for one hour in a dark chamber. Slides were then washed 3× with 2% BSA/PBS with a final rinse in PBS and mounted with DAPI-containing Vectashield. DAPI and Alexa568 images were visualized on a Zeiss spinning disc confocal microscope (PerkinElmer).
Where [11] appears, read: wild type γ-promoter, 10 μM, 36 hours.

Biotin-OO-TGTGGAACTGCTGAA-O-k [PNA7]: the “binding of PNA to its target DNA oligo (bound/input)” value (from here on “binding of PNA … (bound/input)”) in [1] was “did not discriminate or bind well”.

Turning to “Biotin-OO-TACTCTAAGACTATT-O-YGRKKRRQRRR [PNA78/TAT]”, in test [2], the “effect on activity of γ-globin luciferase reporter (superactivation)” value (“effect on activity” below) is reported as “stronger” and the “superactivation of γ-promoter reporter mutated at the PNA78 target site” value is reported as “negated its ability to be superactivated”. Moreover, in test [3], the “interaction with target sequence within the γ-globin promoter (quantitative PCR of precipitated DNA)” value (shortened to “interaction”) was “greater than the non-specific MUT PNA78 and TAT alone”.

Consider “Bio-OO-DFDLDMLGDFDLDMLG-O-TACTCTAAGACTATT-O-YGRKKRRQRRR [VP2/PNA78/TAT]”, for which, in [2] (setting [11]), the “effect on activity” value was “little effect beyond that seen with PNA78/TAT”. For the same substance, the luciferase activity increase entry in test [4] was “not observed at all”. Moreover, in test [5], the “luciferase activity increase compared to non-treated cells” value turned out to be 2.3 fold.

With Biotin-OO-GAGTTTAGCCAGG-O-k [PNA150], the “binding of PNA … (bound/input)” value in [1] is on record as “did not discriminate or bind well”.

For the substance “Biotin-OO-TACTCTAAGACTATT-O-PKKKRKV [PNA78/NLS]”, the “effect on activity” value in test [2] (setting [11]) is listed as “mild”.

“Biotin-OO-TACTATAAAACTATT-O-YGRKKRRQRRR [MUT PNA78/TAT]”: in test [3], the “interaction” value is “not higher than the ‘no addition’ control”.

Consider Biotin-OO-GGCTATTGGTCAAGGC-k [PNA116], for which, in [1], the “binding to the mutant DNA target” value was “bound to the mutant DNA target to an unacceptable extent” and the “binding of PNA … (bound/input)” value is listed as “bound their target DNA oligo in proportion to their input”.

As for “YGRKKRRQRRR [TAT alone, reference compound]”, in test [2] (setting [11]), the “effect on activity” value is on record as “no effect”. The “interaction” value in test [3] is recorded as “not higher than the ‘no addition’ control”.

Regarding Biotin-OO-TACTCTAAGACTATT-O-k [PNA78], the “binding to target region within the γ-globin promoter fragment” value in test [6] is “binds specifically to its target region”. Moreover, in test [1], the “discrimination between wild type and mutant oligos” value was around 25 fold; the “binding of PNA … (bound/input)” value is on record as “bound their target DNA oligo in proportion to their input”.

With “H2N-CGSDALDDFDLDML-Biotin-O-TACTCTAAGACTATT-O-YGRKKRRQRRR [ATF-Bio/PNA78/TAT]”, the “increase of γ-globin levels/expression” value in test [7] (16 hours after PNA treatment, in comparison to cells treated with PNA78/TAT alone) stood at 7 fold. Besides, in [8], the γ-globin protein accumulation entry is given as “γ-globin protein accumulation solely in those cells”. In test [8] (visual analysis of ≧100 cells per field), the “cells positive for γ-globin protein” value was 22%. The “increase of γ-globin expression compared to untreated cells” value in [9] is given as around 5 fold. The “γ-globin protein expression in the cytoplasm” value in test [10] is on record as “levels approaching that seen in uninduced K562 cells”.

As for “Bio-OO-CGSDALDDFDLDML-O-TACTCTAAGACTATT-O-YGRKKRRQRRR [Bio-ATF/PNA78/TAT]”, in test [7] (biotin at the extreme 5′ end), the “ability to activate γ-globin expression” value is given as “precluded its ability to activate γ-globin expression”.
